The record followed here is PubChem BioAssay AID2060901 (Molecular Pharmacology Branch, DTP, NCI, 2025).

The subject of this assay is 422866-222-R5-J1-PDC complex spheroids viability. Put plainly: Anticancer human tumor 422866-222-R5-J1-PDC patient-derived pancreatic adenocarcinoma cell line growth inhibition [RAS]. Conditions: for viability, T/C: stronger effect = lower value. The method, boiled down:
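Agents were tested in combination matrices in half-log decrements from a top concentration at or near clinical Cmax (10 microM if undetermined). Targets were multi-cell spheroids of tumour lines plus HUVEC and MSC stromal cells.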

[1] abbreviates: curve of first compound, second compound 0.000949 µM.
The mark [2] stands for this setting: curve of first compound, second compound 0.003 µM.
The mark [3] stands for this setting: curve of first compound, second compound 0.00949 µM.
Setting [4] is: curve of first compound, second compound 0.03 µM.
[5] abbreviates: curve of first compound, second compound 0.0949 µM.
The mark [6] stands for this setting: curve of first compound, second compound 0.3 µM.

Where “and” joins values, the source holds several entries; their conditions need not be identical. Equal entries are not always repeated.
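Further: spheroids exposed to compounds for 7 days.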
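Wherever viability, T/C is given: 100% = DMSO vehicle control viability.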

Take `CC1(C)CCC(Nc2ncc(C(F)(F)F)c(-c3c[nH]c4c(P(C)(C)=O)c(C#N)ccc34)n2)CN1` (centres undefined) + CCn1c(-c2cccnc2C(C)OC)c2c3cc(ccc31)N1CCOC(CC(NC(=O)C(C(C)C)N(C)C(=O)C3(F)CCN(C(=O)C#CC(C)(C)N(C)C)CC3)C(=O)N3CCCC(N3)C(=O)OCC(C)(C)C2)C1: the IC50 reads like this: under setting [1], under 0.000949 µM; under setting [2], under 0.000949 µM; under setting [3], under 0.000949 µM; under setting [4], under 0.000949 µM; under setting [5], under 0.000949 µM; under setting [6], under 0.000949 µM. In addition, the viability, T/C (second compound 0.000949 µM, first compound 0.000949 µM) is 27.9%; the viability, T/C (second compound 0.000949 µM, first compound 0.003 µM) is 27%; the viability, T/C (second compound 0.000949 µM, first compound 0.00949 µM) was 30.9%; the viability, T/C (second compound 0.000949 µM, first compound 0.03 µM) was 31.1%; the viability, T/C (second compound 0.000949 µM, first compound 0.0949 µM) is 31%; the viability, T/C (second compound 0.000949 µM, first compound 0.3 µM) is 32.6%. Besides, the viability, T/C (second compound 0.003 µM, first compound 0.000949 µM) is 25.2%; the viability, T/C (second compound 0.003 µM, first compound 0.003 µM) is 27%; the viability, T/C (second compound 0.003 µM, first compound 0.00949 µM) was 27.6%; the viability, T/C (second compound 0.003 µM, first compound 0.03 µM) was 24.8%; the viability, T/C (second compound 0.003 µM, first compound 0.0949 µM) is 28.6%; the viability, T/C (second compound 0.003 µM, first compound 0.3 µM) is 26.9%. Also, the viability, T/C reads like this: (second compound 0.00949 µM, first compound 0.000949 µM) 24.1%; (second compound 0.00949 µM, first compound 0.003 µM) 24.4%; (second compound 0.00949 µM, first compound 0.00949 µM) 26.1%; (second compound 0.00949 µM, first compound 0.03 µM) 26.2%; (second compound 0.00949 µM, first compound 0.0949 µM) 26.1%; (second compound 0.00949 µM, first compound 0.3 µM) 27.2%. The viability, T/C (second compound 0.03 µM, first compound 0.000949 µM) is 24.2%; the viability, T/C (second compound 0.03 µM, first compound 0.003 µM) is 25.8%; the viability, T/C (second compound 0.03 µM, first compound 0.00949 µM) is 24.2%; the viability, T/C (second compound 0.03 µM, first compound 0.03 µM) was 26.3%; the viability, T/C (second compound 0.03 µM, first compound 0.0949 µM) was 28.2%; the viability, T/C (second compound 0.03 µM, first compound 0.3 µM) was 28.5%. Also, the viability, T/C is 20.1% (second compound 0.0949 µM, first compound 0.000949 µM); 22.7% (second compound 0.0949 µM, first compound 0.003 µM); 25.4% (second compound 0.0949 µM, first compound 0.00949 µM); 23.6% (second compound 0.0949 µM, first compound 0.03 µM); 26.7% (second compound 0.0949 µM, first compound 0.0949 µM); 25.6% (second compound 0.0949 µM, first compound 0.3 µM). Also, the viability, T/C is, setting by setting: (second compound 0.3 µM, first compound 0.000949 µM) 20%; (second compound 0.3 µM, first compound 0.003 µM) 22.8%; (second compound 0.3 µM, first compound 0.00949 µM) 24.2%; (second compound 0.3 µM, first compound 0.03 µM) 24.8%; (second compound 0.3 µM, first compound 0.0949 µM) 28.1%; (second compound 0.3 µM, first compound 0.3 µM) 24.6%.
As to `CC(C)NCC(C(=O)N1CCN(c2ncnc3c2C(C)CC3O)CC1)c1ccc(Cl)cc1` (centres undefined), the viability, T/C (compound 0.0316 µM) was 92.2% [middle of 4 runs]; the viability, T/C (compound 0.1 µM) is 93.6% [middle of 4 runs]; the viability, T/C (compound 10 µM) was 133% (2×) and 147% and 160%. Besides, the 50% inhibitory concentration (IC50) (curve of compound) was over 10 µM.
Regarding `O=C(c1ccc(F)c(F)c1Nc1ccc(I)cc1F)N1CC(O)([C@@H]2CCCCN2)C1`, the viability, T/C (compound 0.00316 µM) is 98.2% [middle of 4 runs]; the viability, T/C (compound 0.01 µM) was 74.8% [middle of 4 runs]; the viability, T/C (compound 0.0316 µM) was 60.7% [middle of 4 runs]; the viability, T/C (compound 0.1 µM) was 57% [middle of 4 runs]; the viability, T/C (compound 0.316 µM) was 45.2% [middle of 4 runs]; the viability, T/C (compound 1 µM) was 39.2% [middle of 4 runs].
`Cc1nc(N2CCC3(CC2)COC(C)C3N)c(CO)nc1Sc1ccnc(N)c1Cl` (centres undefined) + CCn1c(-c2cccnc2C(C)OC)c2c3cc(ccc31)N1CCOC(CC(NC(=O)C(C(C)C)N(C)C(=O)C3(F)CCN(C(=O)C#CC(C)(C)N(C)C)CC3)C(=O)N3CCCC(N3)C(=O)OCC(C)(C)C2)C1: the IC50 was under 0.0316 µM under setting [1]; under 0.0316 µM under setting [2]; under 0.0316 µM under setting [3]; under 0.0316 µM under setting [4]; under 0.0316 µM under setting [5]; under 0.0316 µM under setting [6]. The viability, T/C reads like this: (second compound 0.000949 µM, first compound 0.0316 µM) 23.6%; (second compound 0.000949 µM, first compound 0.1 µM) 22.8%; (second compound 0.000949 µM, first compound 0.316 µM) 17.9%; (second compound 0.000949 µM, first compound 1 µM) 17.6%; (second compound 0.000949 µM, first compound 3.16 µM) 16.4%; (second compound 0.000949 µM, first compound 10 µM) 17.5%. For the same molecule, the viability, T/C (second compound 0.003 µM, first compound 0.0316 µM) was 20.9%; the viability, T/C (second compound 0.003 µM, first compound 0.1 µM) was 18.5%; the viability, T/C (second compound 0.003 µM, first compound 0.316 µM) is 17.1%; the viability, T/C (second compound 0.003 µM, first compound 1 µM) was 17.9%; the viability, T/C (second compound 0.003 µM, first compound 3.16 µM) was 15.9%; the viability, T/C (second compound 0.003 µM, first compound 10 µM) is 23.2%. Also, the viability, T/C reads like this: (second compound 0.00949 µM, first compound 0.0316 µM) 20%; (second compound 0.00949 µM, first compound 0.1 µM) 16.3%; (second compound 0.00949 µM, first compound 0.316 µM) 15.8%; (second compound 0.00949 µM, first compound 1 µM) 14.1%; (second compound 0.00949 µM, first compound 3.16 µM) 16.4%; (second compound 0.00949 µM, first compound 10 µM) 13.6%. In addition, the viability, T/C by setting is: (second compound 0.03 µM, first compound 0.0316 µM) 20.8%; (second compound 0.03 µM, first compound 0.1 µM) 15.6%; (second compound 0.03 µM, first compound 0.316 µM) 12.8%; (second compound 0.03 µM, first compound 1 µM) 14.9%; (second compound 0.03 µM, first compound 3.16 µM) 13.5%; (second compound 0.03 µM, first compound 10 µM) 13.8%. Besides, the viability, T/C by setting is: (second compound 0.0949 µM, first compound 0.0316 µM) 15.6%; (second compound 0.0949 µM, first compound 0.1 µM) 13.4%; (second compound 0.0949 µM, first compound 0.316 µM) 13.9%; (second compound 0.0949 µM, first compound 1 µM) 11.9%; (second compound 0.0949 µM, first compound 3.16 µM) 15.6%; (second compound 0.0949 µM, first compound 10 µM) 14.2%. Besides, the viability, T/C runs as follows: (second compound 0.3 µM, first compound 0.0316 µM) 17.5%; (second compound 0.3 µM, first compound 0.1 µM) 13.9%; (second compound 0.3 µM, first compound 0.316 µM) 14.9%; (second compound 0.3 µM, first compound 1 µM) 12.5%; (second compound 0.3 µM, first compound 3.16 µM) 17.3%; (second compound 0.3 µM, first compound 10 µM) 18.8%.
